Experimental data: patent publication US9969698B2, “Quinoxalinyl-piperazinamide methods of use” (REXAHN PHARMACEUTICALS, INC., priority 2015, dated 2018)
Marks after values point to notes of the source that are not given here.

Assays:
Y593 phospho-p68 = target: T1, Y593 phospho-p68 (Homo sapiens, UniProt P17844); assay: Filter binding assay with 3H-labeled RX-5902; conditions: estimated by 50% of p68 bound to RX-5902
T1 construct: purchased Origene (Rockville, Md.)
Procedure: (§1) Recombinant β-catenin was used without further treatment whereas recombinant p68 protein was either used as p68 or phosphorylated by c-Abl for filter binding assay. Recombinant c-Abl was obtained from Abeam (Cambridge, Mass.).
(§2) Filter binding studies have been previously described elsewhere (Coombs et al., Proc. Natl. Acad. Sci. USA, 75:5291-5295 (1978). Briefly, recombinant p68 RNA helicase with/without tyrosine phosphorylation was added to the ^3H-labeled RX-5902 (10 Ci/mmol) with PBS. ^3H-labeled RX-5902 was synthesized from Quotient Bioresearch (Cardiff, UK). After incubation at room temperature for 30 minutes, the binding mixtures were loaded onto a nitrocellulose membrane. The membrane was washed five times with PBS, and then dried by vacuum. The amounts of RX-5902 bound to p68 with/without phosphorylation of p68 were determined by ^3H scintillation counting. The same procedure was done with ^3H-labeled RX-5902 alone without addition of p68 RNA helicase and sample p68 RNA helicase alone without addition of the ^3H-labeled RX-5902 as background ^3H scintillation counting. The binding percentages of p68 to the compound were calculated and plotted against concentrations. The dissociation constant (Kd) was estimated by the concentration at 50% of p68 bound to RX-5902 and calculated by linear regression analysis.

unphosphorylated p68 = target: T2, unphosphorylated p68 (Homo sapiens, UniProt P17844); assay: Filter binding assay with 3H-labeled RX-5902; conditions: filter binding studies
T2 construct: purchased Origene (Rockville, Md.)
T2 sequence (P17844 whole entry): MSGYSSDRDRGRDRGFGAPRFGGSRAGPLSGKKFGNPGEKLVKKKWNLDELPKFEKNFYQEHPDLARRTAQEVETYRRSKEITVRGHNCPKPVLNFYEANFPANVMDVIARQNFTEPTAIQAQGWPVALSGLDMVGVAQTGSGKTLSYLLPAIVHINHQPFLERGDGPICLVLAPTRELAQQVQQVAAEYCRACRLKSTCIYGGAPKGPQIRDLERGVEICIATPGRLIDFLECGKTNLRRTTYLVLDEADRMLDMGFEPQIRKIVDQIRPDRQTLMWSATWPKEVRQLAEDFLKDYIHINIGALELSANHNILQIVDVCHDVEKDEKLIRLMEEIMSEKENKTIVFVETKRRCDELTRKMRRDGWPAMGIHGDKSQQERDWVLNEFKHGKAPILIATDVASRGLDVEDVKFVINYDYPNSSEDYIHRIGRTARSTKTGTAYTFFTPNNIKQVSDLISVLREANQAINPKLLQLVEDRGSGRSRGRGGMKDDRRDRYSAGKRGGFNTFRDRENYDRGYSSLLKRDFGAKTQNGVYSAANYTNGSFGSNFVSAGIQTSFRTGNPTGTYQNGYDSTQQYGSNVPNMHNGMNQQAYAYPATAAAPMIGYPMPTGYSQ
Procedure: as §1, §2

[1] = Human safety and tolerability, dose-ranging study; type: in vivo; conditions: oral capsules
Procedure: In a dose-ranging study, the pharmacokinetics (PK), safety and tolerability of RX-5902 at various oral doses were evaluated. Subjects with advanced or metastatic solid tumors were administered capsules containing RX-5902 at daily doses of 25-775 mg once weekly, 250-300 mg three times a week, 150-300 mg five times a week, or 300-350 mg seven times a week of RX-5902 for up to 6 dosing cycles. Each cycle consisting of 1-5 doses of RX-5902 per week for 3 weeks followed by 1 week of rest, or 5-7 doses of RX-5902 per week for 4 weeks without any rest per 4-week cycle. All but one subject had fasted from food for at least 8 hours before administration. One subject received 300 mg RX-5902 in fed state. Plasma concentrations were measured on Days 1 and 15, for 48 hrs, using a validated LC-MS/MS assay, and noncompartmental pharmacokinetic parameters were calculated using Phoenix WinNonlin, Version 6.4.

[2] = system: human ovarian tumor xenografts (A-2780); assay: Cisplatin-resistant ovarian cancer xenograft model; type: in vivo, mice; conditions: oral
Description: The efficacy of RX-5902 in human cancer xenograft mouse models is examined. Female nude mice (nu/nu, Harlan or CRL: NU(NCr)-Foxn1^nu, Charles River), 9-10 weeks old, with a body weight (BW) range of 15-30 g on day 1 of the study, are fed ad libitum water (reverse osmosis, 1 ppm C1), and NIH 31 Modified and Irradiated Lab Diet® consisting of 18.0% crude protein, 5.0% crude fat, and 5.0% crude fiber. The mice are housed on irradiated Enrich-o'Cobs™ Laboratory Animal Bedding in static microisolators on a 12-hour light cycle at 20-22° C. (68-72° F.) and 40-60% humidity. The study complies with the recommendations of the Guide for, Care and Use of Laboratory Animals with respect to restraint, husbandry, surgical procedures, feed and fluid regulation, and veterinary care.
Various human tumor cell lines (e.g., HCT116, HT29, H460, H69, Caki-1, CaSki, MiaPaca2, BxPC3 and Colo 205 cells [ATCC, Manassas, Va., USA]) are cultured according to ATCC's instruction. […]
The cells are harvested during exponential growth and re-suspended with phosphate buffered saline. Each test animal receives a subcutaneous (s.c.) injection of 5×10^6 tumor cells into the right flank and tumor growth is monitored as the average tumor size approaches the target range of 80-300 mm^3. […] Tumors and body weights are measured regularly until the study is terminated.
Tumors are measured in two dimensions using calipers, and volume is calculated using the formula: […]
Treatment efficacy is determined using data from Day 15. The MTV (n), the median tumor volume for the number of animals, n, on Day 15, is determined for each group. Percent tumor growth inhibition (% TGI) is defined as the difference between the MTV of the designated control group (vehicle administration) and the MTV of the drug-treated group, expressed as a percentage of the MTV of the control group: % TGI=[1−(MTVdrug treated/MTVcontrol)]×100 The data set for TGI analysis includes all animals in a group, except those that die due to treatment-related (TR) or non-treatment-related (NTR) causes. […]
Animals are monitored individually for tumor growth until Day 71. […]

T1 sequence (P17844 whole entry): as above

## COc1cc(OC)cc(N2CCN(C(=O)Nc3nc4cc(F)ccc4nc3OC)CC2)c1 [RX-5902, 4-(3,5-dimethoxyphenyl)-N-(7-fluoro-3-methoxyquinoxalin-2-yl)piperazine-1-carboxamide]
Y593 phospho-p68
  Kd: ~19 nM
Unphosphorylated p68
  interaction with unphosphorylated p68: did not interact
[1]; 25-775 mg
  most frequently reported adverse events: mild nausea, vomiting and fatigue
[1]; at the tested dose levels (25-775 mg)
  tolerability: well tolerated
[2]; 160 mg/kg QWK
  TGI %: 43%*
[2]; 320 mg/kg QWK
  TGI %: 43%*
[2]; 600 mg/kg QWK
  TGI %: 75%*
